Source: PubChem BioAssay AID248 (DTP/NCI, 2004)
Several values for one entry are separate records, joined by “and”; a condition that tells them apart may be missing. Equal values may be shown once. Inconclusive results and toxic doses are left out. No stated cut-off is given here; in the data, active means T/C of 150% or more; inactive means T/C below 125%.

Tested on: L1210 leukemia ip in BDF1 mice, survival T/C
Assay: NCI In Vivo Anticancer Drug Screen. Data for tumor model L1210 Leukemia (intraperitoneal) in B6D2F1 (BDF1) mice
Conditions: endpoint: mean survival time, higher = longer survival
In short: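 Survival endpoint. Drug-treated group vs vehicle group, expressed as T divided by C. Tumor passaged by transplantation.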

[1] = dose: 100.0 mg/kg/injection, schedule: Q01DX009 (ip), vehicle: saline with Tween-80
[2] = dose: 100.0 mg/kg/injection, schedule: Q01DX001 (ip), vehicle: carboxymethylcellulose (CMC)
[3] = dose: 200.0 mg/kg/injection, schedule: Q01DX001 (ip), vehicle: carboxymethylcellulose (CMC)
[4] = dose: 400.0 mg/kg/injection, schedule: Q01DX001 (ip), vehicle: carboxymethylcellulose (CMC)
[5] = dose: 100.0 mg/kg/injection, schedule: Q04DX003 (ip), vehicle: Klucel (hydroxypropylcellulose) (HPC)
[6] = dose: 200.0 mg/kg/injection, schedule: Q04DX003 (ip), vehicle: Klucel (hydroxypropylcellulose) (HPC)
[7] = dose: 100.0 mg/kg/injection, schedule: Q01DX009 (ip), vehicle: Klucel (hydroxypropylcellulose) (HPC)
[8] = dose: 200.0 mg/kg/injection, schedule: Q01DX009 (ip), vehicle: Klucel (hydroxypropylcellulose) (HPC)
[9] = dose: 400.0 mg/kg/injection, schedule: Q01DX009 (ip), vehicle: Klucel (hydroxypropylcellulose) (HPC)
[10] = dose: 100.0 mg/kg/injection, schedule: Q04DX002 (ip), vehicle: Klucel (hydroxypropylcellulose) (HPC)
[11] = dose: 200.0 mg/kg/injection, schedule: Q04DX002 (ip), vehicle: Klucel (hydroxypropylcellulose) (HPC)
[12] = dose: 400.0 mg/kg/injection, schedule: Q04DX002 (ip), vehicle: Klucel (hydroxypropylcellulose) (HPC)
[13] = dose: 400.0 mg/kg/injection, schedule: Q04DX003 (ip), vehicle: Klucel (hydroxypropylcellulose) (HPC)
[14] = dose: 50.0 mg/kg/injection, schedule: Q01DX001 (ip), vehicle: saline

Measured: T/C

O=C(Cc1cccc2ccccc12)N/N=C/c1ccccc1O
inactive: dose: 25.0 mg/kg/injection, schedule: Q01DX009 (ip), vehicle: saline with Tween-80 86 % of control | dose: 50.0 mg/kg/injection, schedule: Q01DX009 (ip), vehicle: saline with Tween-80 93 % of control | [1] 100 % of control and 89 % of control

COc1ccc(CN2CCCN(Cc3ccc(OC)cc3OC)C2c2ccccc2OC)c(OC)c1
inactive: dose: 50.0 mg/kg/injection, schedule: Q01DX001 (ip), vehicle: carboxymethylcellulose (CMC) 101 % of control | [2] 93 % of control | [3] 93 % of control | [4] 101 % of control

CCCCNC(c1ccccc1)C(Cl)c1ccccc1 (stereo not drawn)
inactive: [5] 97 % of control | [6] 97 % of control

Cc1ccccc1OC(F)(F)C(F)Cl (stereo not drawn)
inactive: [1] 103 % of control | dose: 100.0 mg/kg/injection, schedule: Q04DX003 (ip), vehicle: saline with Tween-80 96 % of control | dose: 200.0 mg/kg/injection, schedule: Q01DX009 (ip), vehicle: saline with Tween-80 91 % of control | dose: 200.0 mg/kg/injection, schedule: Q04DX003 (ip), vehicle: saline with Tween-80 94 % of control | dose: 400.0 mg/kg/injection, schedule: Q01DX009 (ip), vehicle: saline with Tween-80 86 % of control | dose: 400.0 mg/kg/injection, schedule: Q04DX003 (ip), vehicle: saline with Tween-80 96 % of control

Cc1ccc(NC(=O)OCC2CC3C=CC2C3)cc1 (stereo not drawn)
inactive: [7] 98 % of control | [8] 102 % of control | [9] 100 % of control

CC1=CC(C)(C)NC(=S)N1c1cccc([N+](=O)[O-])c1
inactive: dose: 224.0 mg/kg/injection, schedule: Q01DX Z (ip), vehicle: methylcellulose (MC) 88 % of control | dose: 334.0 mg/kg/injection, schedule: Q01DX Z (ip), vehicle: methylcellulose (MC) 89 % of control | dose: 500.0 mg/kg/injection, schedule: Q01DX Z (ip), vehicle: methylcellulose (MC) 94 % of control

CCc1ccccc1OC(=O)Nc1ccccc1C
inactive: [10] 95 % of control | [11] 100 % of control | [12] 95 % of control

O=C(Nc1cc2ccccc2cc1C(=O)O)Nc1cccc2ccccc12
inactive: [7] 97 % of control | [8] 101 % of control | [9] 100 % of control

Cc1nc2ccccc2o1
inactive: dose: 100.0 mg/kg/injection, schedule: Q04DX002 (ip), vehicle: other 104 % of control | dose: 200.0 mg/kg/injection, schedule: Q04DX002 (ip), vehicle: other 96 % of control | dose: 400.0 mg/kg/injection, schedule: Q04DX002 (ip), vehicle: other 118 % of control

CCCCCCCCCCCCCCOc1ccc2ccccc2c1
inactive: [5] 94 % of control | [6] 96 % of control | [13] 91 % of control

COc1ccccc1NC(=O)NNC(=O)CCCC(=O)NNC(=O)Nc1ccccc1OC
inactive: [14] 100 % of control | dose: 100.0 mg/kg/injection, schedule: Q01DX001 (ip), vehicle: saline 97 % of control | dose: 200.0 mg/kg/injection, schedule: Q01DX001 (ip), vehicle: saline 103 % of control | dose: 400.0 mg/kg/injection, schedule: Q01DX001 (ip), vehicle: saline 97 % of control

O=C(O)/C=C/C(=O)NCCc1ccccc1
inactive: [7] 91 % of control | [8] 102 % of control | [9] 96 % of control

Nc1cc(Br)cc2c1nc(NCCO)c1ccccc12
inactive: dose: 50.0 mg/kg/injection, schedule: Q04DX003 (ip), vehicle: Klucel (hydroxypropylcellulose) (HPC) 118 % of control | [5] 102 % of control | [6] 97 % of control | [13] 105 % of control

N#CCCNC(=O)Nc1cccc2ccccc12
inactive: [2] 96 % of control | [3] 100 % of control | [4] 96 % of control

CCCCCC#CC(=O)OC(C)C
inactive: dose: 100.0 mg/kg/injection, schedule: Q04DX002 (ip), vehicle: saline with Tween-80 102 % of control | dose: 200.0 mg/kg/injection, schedule: Q04DX002 (ip), vehicle: saline with Tween-80 102 % of control | dose: 400.0 mg/kg/injection, schedule: Q04DX002 (ip), vehicle: saline with Tween-80 102 % of control

C/C(CCl)=N\Nc1ccc([N+](=O)[O-])cc1[N+](=O)[O-]
inactive: dose: 100.0 mg/kg/injection, schedule: Q01DX001 (ip), vehicle: saline with Tween-80 101 % of control | dose: 200.0 mg/kg/injection, schedule: Q01DX001 (ip), vehicle: saline with Tween-80 98 % of control

CC(c1ccccc1)n1ccnc1CC#N (stereo not drawn)
inactive: dose: 12.5 mg/kg/injection, schedule: Q01DX009 (ip), vehicle: saline 109 % of control and 88 % of control | dose: 12.5 mg/kg/injection, schedule: Q04DX002 (ip), vehicle: saline 91 % of control | dose: 25.0 mg/kg/injection, schedule: Q01DX001 (ip), vehicle: saline 100 % of control | dose: 25.0 mg/kg/injection, schedule: Q01DX009 (ip), vehicle: saline 107 % of control and 114 % of control | dose: 25.0 mg/kg/injection, schedule: Q04DX002 (ip), vehicle: saline 101 % of control and 105 % of control and 109 % of control | dose: 25.0 mg/kg/injection, schedule: Q04DX003 (ip), vehicle: saline 88 % of control | [14] 101 % of control | dose: 50.0 mg/kg/injection, schedule: Q01DX009 (ip), vehicle: saline 97 % of control and 98 % of control | dose: 50.0 mg/kg/injection, schedule: Q04DX002 (ip), vehicle: saline 95 % of control and 96 % of control and 102 % of control | dose: 50.0 mg/kg/injection, schedule: Q04DX003 (ip), vehicle: saline 93 % of control

O=c1cc(CS)[nH]c(=O)[nH]1
inactive: dose: 100.0 mg/kg/injection, schedule: Q04DX003 (ip), vehicle: saline 98 % of control | dose: 200.0 mg/kg/injection, schedule: Q04DX003 (ip), vehicle: saline 101 % of control | dose: 400.0 mg/kg/injection, schedule: Q04DX003 (ip), vehicle: saline 98 % of control

O=S(=O)(Nc1nccs1)c1ccc(NN=Nc2c(Cl)cc(Cl)cc2Cl)cc1
inactive: [7] 96 % of control | [8] 96 % of control | [9] 97 % of control

Cc1nnc(NN)nc1C
inactive: dose: 6.25 mg/kg/injection, schedule: Q01DX009 (ip), vehicle: saline with Tween-80 101 % of control | dose: 6.25 mg/kg/injection, schedule: Q04DX003 (ip), vehicle: saline with Tween-80 100 % of control | dose: 12.5 mg/kg/injection, schedule: Q01DX001 (ip), vehicle: saline with Tween-80 112 % of control | dose: 12.5 mg/kg/injection, schedule: Q01DX009 (ip), vehicle: saline with Tween-80 103 % of control | dose: 12.5 mg/kg/injection, schedule: Q04DX003 (ip), vehicle: saline with Tween-80 103 % of control | dose: 25.0 mg/kg/injection, schedule: Q01DX001 (ip), vehicle: saline with Tween-80 100 % of control | dose: 25.0 mg/kg/injection, schedule: Q04DX003 (ip), vehicle: saline with Tween-80 95 % of control

O=[N+]([O-])c1ccccc1N=Nc1c(O)[nH]c2ccccc12
inactive: dose: 100.0 mg/kg/injection, schedule: Q01DX001 (ip), vehicle: other 102 % of control | dose: 200.0 mg/kg/injection, schedule: Q01DX001 (ip), vehicle: other 98 % of control | dose: 400.0 mg/kg/injection, schedule: Q01DX001 (ip), vehicle: other 102 % of control

c1ccc(NCCOc2ccccc2)cc1
inactive: [7] 108 % of control | [10] 114 % of control | [8] 94 % of control | [11] 98 % of control | [12] 88 % of control
